Test results as given in patent US6602852B1, “Basic peptides and pharmaceutical compositions containing same” (NST NeuroSurvival Technologies, Ltd., priority 1998, dated 2003).
Read-outs that look alike come from different tables or passages of the source.

What was measured:
[1] = target: anionic phospholipid membranes; details: cited from earlier work
[2] = rabbits, intravenous injection; cited from earlier work
[3] = tested on: apoptotic hepatocytes; format: in vivo; details: data not shown
Procedure: All animals were killed 2 hr after administration of antibody followed by organ removal. Heart, lung and liver were collected.
Formalin fixed paraffin-embedded tissues were sectioned (5 μm) for staining with Hematoxylin/Eosin or other techniques.
Endogenous peroxidase activity was blocked by incubation with 3% H2O2.
After washing with PBS, staining was developed with 3,3-diaminobenzidine tetrahydrochloride (DAB), and counterstained with Hematoxylin.
Liver sections from different lobes were used for detection of stained apoptotic cells compared to normal cells.
The percentage of apoptotic cells in the fields was estimated by evaluating parallel sections stained with Hematoxylin/Eosin. Analysis was performed blindly, since the pathologist performing the histological evaluation was unaware of the assignment of mice to the treatment or control group.

[4] = tested on: Human Umbilical Vein Endothelial Cells (HUVEC); details: 500 ng of compound, 40 minutes
Procedure: HUVEC (CC-2517, obtained from Clonetics, Walkersville, Md.) were grown on tissue culture flasks in Endothelial cell medium (EGM-2 Bulletkit, CC 3162, Clonetics). Mid-confluent cultures were harvested using Trypsine/EDTA solution (CC-5012, Clonetics). The cells were rinsed twice with PBS containing 2% BSA and kept on ice. Samples of 10^6 cells were tested for binding.
The reactions were incubated at room temperature for 40 minutes and then 400 μl of TBS-BSA were added and cells were collected by centrifugation at 3000×g for 3 minutes. Cells were washed in 1 ml of TBS-BSA and centrifuged as before and then suspended in 100 μl of TBS-BSA containing streptavidin conjugated to flourescein (FITC) for detection of the bound biotinylated compound. […] Thereafter, 400 μl of TBS-BSA were added and cells were centrifuged and washed again with 1 ml of TBS-BSA as before and then resuspended in 400 μl of TSS and taken for FACS analysis.
The FACS analysis was performed on Beckton-Dickinson cell sorter, using lysis II software. Excitation was at 488 nm and emission for FITC detection was a 535 nm.
A dot plot analysis was done for each treatment.

[5] = tested on: procoagulant activity of apoptotic HeLa S3 cells; details: 0.5 μM; for effect on procoagulant effect of apoptotic cells: FIG. 5a
Procedure: In the standard APTT test, clot formation is triggered by recalcification of plasma and addition of cephalin, i.e. negatively-charged phospholipids. Time until clot formation was measured as described in Example 3. […] In the modified APTT test, used in the present study, the addition of negatively-charged phospholipids (cephalin) was replaced by addition of apoptotic cells.
The cultured medium was discarded, and cells that were loosely attached to the growing surface, were collected in PBS, as described in Example 2B. These cells were washed and resuspended in TBS, and were regarded as advanced apoptotic cells. Equal numbers of apoptotic or control non-treated cells (10^5) in a volume of 100 μl, were mixed with 100 μl of 25 mM of CaCl2 and the clotting time was measured. […] Inhibition of their procoagulant activity by NST300 compounds was tested following pre-incubation of apoptotic cells with the different NST300 compounds.
Pre-incubation of equal numbers of apoptotic or control non-treated cells (10^5) with NST300 compounds was for 10 minutes at room temperature in a final volume of 100 μl. The compounds were used at concentration of 0.5 μM. The results can be seen in FIG. 5a.

[6] = tested on: HeLa S3 cells undergoing dopamine (DA)-induced apoptosis
Procedure: Said compounds were each dissolved in TBS (Tris Buffered Saline; 10 mM Tris PH 8.0; 150 mM NaCl), at a stock concentration of 10 mM.
HeLa S3 cells (ATCC CCL-2.2) were cultured on a glass chamber slide (Nunc) on a culture area of […]. Chamber slides were pre-coated with 1% gelatin (Sigma) Cells were seeded at a density of 8×10^4 cells/chamber, in a volume of 300 μl of culture medium [Dulbecco's Modified Eagle's Medium (DMEM) supplemented with 2 mM of L-Glutamine; 100 units/ml of Penicilin; 100 μg/ml of Streptomycin; 12.5 units/ml of Nystatin and 10% of Fetal Calf Serum (FCS)]. Following 24 hours of incubation the cells were treated with an apoptotic trigger [i.e. dopamine (DA), which is a well characterized model of apoptosis (Lou et al., J. Biol. Chem. 1998; 273:3756-3764)].
For the DA treatment, the culture medium was replaced by a low serum containing medium (2% FCS), with 500 μM of dopamine (from RBI, Mass., USA) for 18 hours.
The evaluation was performed by staining with Hoechst 33342 dye (Molecular probes). This blue fluorescent dye is rapidly permeable into cells and stains DNA. Hoechst 33342 was added to growing cultures at a concentration of 1 μg/ml and 20 minutes later, the cells were visualized under UV light microscopy. The relative number of apoptotic cells with condensed or fragmented chromatin was then evaluated and compared with non-apoptotic cells which characteristically show a pale and diffuse staining. Photomicrographs were taken for documentation. […] This method was used to evaluate the level of apoptosis in cultured cells prior to binding to the NST300 compounds.
Apoptotic, as well as control untreated cells were grown as specified above and washed twice with TBS. The slides were then incubated with the NST300 compound at concentrations of 250-750 nM for 60 minutes, in a total volume of 100 μl. Slides were then dipped into a Couplin Jar containing 50 ml of TBS, and then incubated with 50 ng/ml of a sterptavidin reagent labeled with FITC (Fluorescein Isothiocyanate Conjugated, from Jackson Immunolaboratory U.S.A.). […] The slides were then washed with TBS as above and were then mounted with Fluoroguard antifade reagent (from Biorad Calif., USA).
The binding was then evaluated with a fluorescent microscope (IX70; Olympus), using a NIBA filter (Narrow Interference Blue A from Olympus).

[7] = tested on: clotting induced by negatively charged phospholipids in normal plasma
Procedure: The ability of NST300 compounds to inhibit coagulaton catalyzed by negatively—charged phospholipids was evaluated in a standard coagulation test of the Russell viper venom (RVV) assay. The RVV reagent directly activates factor x present in the plasma, thus promoting prothrombinase complex formation. This reagent is widely used as a standard phospholipid responsive clotting test. (Thiagarajan et al., Blood, 1986; 869-874).
The RVV reagent kit, containing RVV and negatively charged phospholipids, from Gradipore, Australia was used. The reactions were started by mixing 100 μl of RVV reagent, and 100 μl of quality control plasma collected from normal individuals (commercially available from Instrumentation Laboratory, Italy). Clotting time was determined as the time-point beyond which the continuously mixed reaction ingredients in the test tube, could no longer be aspirated with a pasteur pipette. Clotting time was measured independently by two separate researchers.

[8] = tested on: HeLa cells undergoing dopamine-induced apoptosis; details: 750 nM
Procedure: HeLa cells were plated on tissue culture plates at a density of 3×10^6 cells/10 cm dish, and grown in a DMEM medium containing 10% FCS, as described in A. The cells were then incubated at 37° C. overnight, and then the medium was replaced with a medium containing 2% FCS and 500 μM of dopamine. 18 hours later, the medium was aspirated and discarded, and 10 ml of Phosphate Buffered Saline pH 7.4 (PBS) were added to the culture dish. The cells which were detached from the culture dish into the PBS were collected. These cells represent advanced apoptotic cells. The remaining cells which were attached to the culture dish were trypsinized by the addition of 2 ml of trypsin for 2 minutes at 37° C., followed by the addition of 10 ml of a medium containing 10% of FCS. The cells were then washed with PBS containing 2% Bovine Serum Albumin (BSA), and resuspended in TBS containing 2% BSA (TBS-BSA). These cells were regarded as early apoptotic cells. […] Only non-treated cells that were attached to the culture dish were used as control cells for the FACS analysis.
A set of 3 different cell types was taken:
The incubation with the NST300 compounds or control compound was performed in a final volume of 100 μl TBS-BSA, 5 μg/ml of propidium iodide (PI) and 750 nM of the tested compound or the control compound.
PI is a red fluorescent dye that stains DNA. […] Only cells that are in advanced apoptotic stages, or cells that have already died by apoptosis or necrosis will be permeable to PI and will be stained with the dye. […] The cells were then washed in 500 μl of cold TBS-BSA and centrifugated as before. The cells were then suspended in 100 μl of TBS-BSA containing streptavidin conjugated to fluorescein (FITC). […] Thereafter, the cells were washed three times in TBS-BSA and were taken for FACS analysis.
The FACS analysis was performed on a Beckton-Dickinson cell sorter, using lysis II software. Excitation was at 488 nm and the emission or FITC detection was at 535 nm and for PI detection at 585 nm.

Substance	Kd [1] [nM]	clearance within 5 minutes [2] [%]	staining pattern when exogenously added to the apoptotic cells [3]	cells FITC positive [4] [%]	effect on procoagulant effect of apoptotic cells [5]	effect on procoagulant effect of apoptotic cells ([5]; listed as NST 301-C)	staining of DA-induced apoptotic HeLa cells ([6]; 250-750 nM compound, streptavidin-FITC, fluorescent microscopy)	anti-coagulant effect ([7]; RVV test, FIG. 4)	increase of clotting time by a factor ([5]; apoptotic cells)	staining of advanced apoptotic cells ([6]; 750 nM, FIG. 2c)	staining of cells in early apoptotic stages ([6]; 750 nM, FIG. 2c)	staining of control non-treated HeLa cells ([6]; 750 nM, fluorescent microscopy)	detection of early apoptotic cells ([8]; FIG. 3c)	early apoptotic cells double stained also with PI ([8]; early apoptotic cells) [%]	binding intensity: ratio of FITC mean value of apoptotic cells to that of control cells ([8]; early apoptotic cells, FIG. 3b) [fold]	total FITC/total PI ratio ([8]; advanced apoptotic cells)	total FITC/total PI ratio ([8]; early apoptotic cells)	increase of clotting time by a factor as compared to control ([7]; 0.5-50 μM, control clotting time 40 seconds)
Annexin V: 320 amino acid protein of the annexin family, Ca2+-dependent binding to anionic phospholipid membranes	0.01 to 1	90	same pattern of staining															
GGGKKKKKRFSFKKSFKLSGFSFKKNKKK (SEQUENCE ID NO. 3) (Biotin)-OH [NST301-C, reference compound]				7	mild effect	very modest effect	did not show any significant binding	Significant, though moderate effect										
Myristate-GGGKKKKKRFSFKKSFKLSGFSFKKNKKK (SEQUENCE ID NO. 1)-(biotin) [NST301]					fully reversing				2	intense labeling	light, peripheral staining	few of them were stained, and very faintly	potent detector	43	4	1.2	2.2	2.6
